Values after ≈ are worked out from the molar mass of the structure shown. Structures can show the parent of a compound that is named as a salt.
Columns and labels:
platelet aggregation [1] = assay: Inhibitory activities on platelet aggregation, in vitro (ADP-induced); type: cell-based, guinea pig (Hartley strain); details: platelet rich plasma, 10 minutes incubation, adenosine diphosphate 1 micro M; for IC50: Cavia porcellus, Platelet, 10 min
Method: (§1) From a guinea pig (Hartley strain), citric acid-added blood was obtained by a cardiac puncture. The blood was centrifuged at 120×g for 10 minutes, and the supernatant platelet rich plasma was separated. Measurement of platelet aggregation was conducted by means of an aggregometer in accordance with the Bone's nephelometry (G. V. R. Bone; Nature, vol 194, p 927, 1962). In a test in vitro, a test compound was added to the platelet rich plasma, and the mixture was incubated for 10 minutes. Then, adensoine diphosphate (1 micro M) was added to induce platelet aggregation. The degree of aggregation was represented by the maximum change in the light transmittance (the maximum aggregation rate) within 5 minutes after the addition of adenosine diphosphate, and the results are shown by a 50% inhibitory concentration. In a test ex vivo, a test compound was dissolved in ethanol, then suspended in a 0.5% tragacanth solution or in a 1% β-cyclodextrin solution and orally administered. From blood obtained by a cardiac puncture 30 minutes after the administration, a platelet rich plasma was prepared, and platelet aggregation was measured in the same manner as in the case of the test in vitro.

[2] = tested on: vasopressin-induced ST depression; assay: Anti-anginal activities (Preventive activities on vasopressin-induced ST depression); type: in vivo, male rat (Donryou strain); details: for Oral administration MED (minimum effective dose showing a significant preventive activity) / minimal effective dose: 30 minutes prior to vasopressin (0.2 IU/kg), oral; for minimal effective dose: Rattus norvegicus, read-out: Oral administration MED (minimum effective dose showing a significant preventive activity)
Method: Vasopressin (0.2 IU/kg) was administered from the femoral vein of a male rat (Donryou strain) anesthetized with pentobarbital, and the electrocardiogram was recorded for 5 seconds each at intervals of 30 seconds over a period of 5 minutes after the administration. The depression of ST-segment (the average of five pulses) was calculated on the electrocardiogram. The test compound was dissolved in ethanol and intravenously administered 2 minutes prior to the administration of vasopressin, or after being dissolved in ethanol, suspended in a 0.5% tragacanth solution or in a 1% β-cyclodextrin solution and orally administered 30 minutes prior to the administration of vasopressin. The differences of the ST depression between the test compound-administered group and the non-treated control group (5 animals for each group) were analysed by two-way layout analysis of variance.

platelet aggregation [3] = assay: Inhibitory activities on platelet aggregation, ex vivo after oral administration (ADP-induced); type: in vivo, guinea pig (Hartley strain); details: 30 minutes after administration; for minimal effective dose: Cavia porcellus, Platelet, 0.5 h, read-out: ex vivo MED (minimum effective dose showing significant inhibitory effects, P < 0.05)
Method: as §1

male mice of ddY strain = assay: Acute toxicity, oral; type: in vivo; details: 20 mg/kg, 1% β-cyclodextrin solution, 7 days
Method: To male mice of ddY strain weighing 25-32 g (five animals per each group), a predetermined dose of a test compound dissolved in a small amount of ethanol and then diluted with a 1% β-cyclodextrin solution, was orally administered, and the mortality was recorded over a period of 7 days after the administration.

[4] = Solvent Y: 1% β-cyclodextrin solution
[5] = Solvent X: 0.5% tragacanth solution

Compound | IC50 (platelet aggregation [1]) [ng/mL] | in vitro IC50 (platelet aggregation [1]) [ng/mL] | minimal effective dose (platelet aggregation [3]; [4]) [mg/kg] | further results
CCCCC(C)C[C@H](O)/C=C/[C@@H]1[C@@H]2[C@H](C[C@H]1O)O/C(=C\C1CC(C(=O)O)C1)[C@@H]2F (single isomer, unassigned) [Compound E-a, sodium salt of 2,4-methylene-7α-fluoro-17,20-dimethylPGI2] | 1.13 |  |  | Oral administration MED (minimum effective dose showing a significant preventive activity) [2, 4]: 0.1 mg/kg
CCCCC(C)C[C@H](O)/C=C/[C@@H]1[C@@H]2[C@H](C[C@H]1O)O/C(=C\C1CC(C(=O)O)C1)[C@@H]2F (single isomer, unassigned) [Compound E-b, sodium salt of 2,4-methylene-7α-fluoro-17,20-dimethylPGI2] |  | 1.70 | 0.3 | minimal effective dose [2, 4]: 0.1 mg/kg; Number of dead animals/Number of test animals (male mice of ddY strain): 0/5
CCCCC(C)C[C@H](O)/C=C/[C@@H]1[C@@H]2[C@H](C[C@H]1O)O/C(=C\CC1CC1C(=O)O)[C@@H]2F (stereo partly drawn) [Compound A, sodium salt of 2,3-methylene-7α-fluoro-17,20-dimethylPGI2] | 18.3 |  |  | 
CCCCC(C)C[C@H](O)/C=C/[C@@H]1[C@@H]2[C@H](C[C@H]1O)O/C(=C\C1CC(C(=O)OC)C1)[C@@H]2F (stereo partly drawn) [Compound D-a, methyl ester of 2,4-methylene-7α-fluoro-17,20-dimethylPGI2] | 2.88 (≈ 6.78 nM) |  | 0.3 | 
CCCCC(C)C[C@H](O)/C=C/[C@@H]1[C@@H]2[C@H](C[C@H]1O)O/C(=C\C1CC(C(=O)OC)C1)[C@@H]2F (stereo partly drawn) [Compound D-b, methyl ester of 2,4-methylene-7α-fluoro-17,20-dimethylPGI2] |  | 1.50 |  | ex vivo MED (minimum effective dose showing significant inhibitory effects, P < 0.05) (platelet aggregation [3]; [4]): 0.3 mg/kg; minimal effective dose [2, 4]: 0.1 mg/kg; Number of dead animals/Number of test animals (male mice of ddY strain): 0/5
CCCCC[C@H](O)/C=C/[C@@H]1[C@H]2C/C(=C/CCCC(=O)O)O[C@H]2C[C@H]1O [Compound F, natural PGI2, reference compound] |  |  | > 10 | 
methyl ester of (1S*,3R*)-2,4-ethylene-7α-flouro-17,20-dimethylPGI2 [Compound C] |  | 5.50 |  | 
methyl ester of (1S*,3S*)-2,4-ethylene-7α-fluoro-17,20-dimethylPGI2 [Compound B-b] |  | 0.87 |  | ex vivo MED (minimum effective dose showing significant inhibitory effects, P < 0.05) (platelet aggregation [3]; [5]): 0.3 mg/kg; Intravenous administration MED (minimum effective dose showing a significant preventive activity) ([2]; intravenous, in ethanol, 2 minutes prior to vasopressin (0.2 IU/kg)): 1 µg/kg; Oral administration MED (minimum effective dose showing a significant preventive activity) [2, 5]: 0.01 mg/kg

— patent US5416231A, “Prostaglandin I2 derivatives” (Asahi Glass Company, Ltd., priority 1990, dated 1995)
